Legend:
Caco-2 cells [1] = test system: Caco-2 cells; design: method as in not given; conditions: micellar formulation, ref not given; cited from earlier work
BCRP [2] = target: T1, BCRP (Homo sapiens, UniProt Q9UNQ0); conditions: cited from earlier work
T1 sequence (Q9UNQ0 1-655): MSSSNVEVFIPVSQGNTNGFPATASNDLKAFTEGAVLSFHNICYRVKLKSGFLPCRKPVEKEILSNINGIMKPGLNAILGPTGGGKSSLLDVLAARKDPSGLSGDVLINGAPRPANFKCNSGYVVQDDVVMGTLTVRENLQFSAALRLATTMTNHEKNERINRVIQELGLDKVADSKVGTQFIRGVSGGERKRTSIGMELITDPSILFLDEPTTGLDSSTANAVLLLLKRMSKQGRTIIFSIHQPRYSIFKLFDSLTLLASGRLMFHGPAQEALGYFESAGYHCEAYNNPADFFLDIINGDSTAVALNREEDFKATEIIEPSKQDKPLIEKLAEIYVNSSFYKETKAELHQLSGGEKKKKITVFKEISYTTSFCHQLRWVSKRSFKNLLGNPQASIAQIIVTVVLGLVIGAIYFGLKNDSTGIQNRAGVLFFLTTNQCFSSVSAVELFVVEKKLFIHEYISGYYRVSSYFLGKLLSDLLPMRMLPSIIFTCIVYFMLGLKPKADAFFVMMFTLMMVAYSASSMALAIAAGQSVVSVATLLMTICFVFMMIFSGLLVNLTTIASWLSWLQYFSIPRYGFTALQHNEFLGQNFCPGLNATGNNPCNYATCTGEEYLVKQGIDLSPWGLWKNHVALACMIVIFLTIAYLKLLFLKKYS

BCRP [3] = target: T1, BCRP; assay: Vesicular transport assay, BCRP (Lucifer yellow substrate); type: biochemical; design: made in house; host or cells: Spodoptera frugiperda Sf9 cells, crude membrane vesicles
Experimental: Transport inhibition by 22 food additives was tested with Spodoptera frugiperda (Sf9) derived crude membrane vesicles expressing BCRP, MRP2, or P-gp produced in-house. […] Vesicles (50 μg total protein/well) were diluted in an assay buffer (40 mM MOPS–Tris pH 7.0, 60 mM KCl, and 6 mM MgCl2) with the substrate, and food additives (final concentration of 50 μM) in DMSO were added to the mixture. After preincubation, either the assay buffer or Mg-ATP solution (final concentration 4 mM) was added to the plate to start the reaction. The plate was incubated at 37 °C, and the reaction was stopped with an ice-cold washing mixture (40 mM MOPS-Tris pH 7.0 and 70 mM KCl). Samples were moved to a MultiScreenHTS-FB Plate Glass fiber 1.0 μm/0.65 μm Durapore filter plate (Millipore, USA), and the wells were washed five times with the ice-cold washing mixture. For BCRP and MRP2, the fluorescent substrate was eluted from the filters with 100 μL 0.1 M NaOH. For LY samples, an equal volume of 0.1 M HCl was added to neutralize the samples before fluorescence measurement. The amount of the substrate accumulated into the vesicles was measured by fluorescent detection using a Varioskan LUX microplate reader (Thermo Fisher Scientific, Finland) (Table ). The accumulation into the P-gp vesicles was measured with high-performance liquid chromatography (HPLC) (Agilent 110 series, Agilent Technologies, USA) after lysis and elution of the vesicle contents with 100 μL 3:1 methanol/water + 0.1% formic acid. The column used was a Poroshell 120 EC-C18 with a size of 4.6 × 100 mm and 2.7 μm particle size. Eluent A was 0.1% formic acid, and eluent B was acetonitrile. The flow rate of eluent was 1 mL/min, and the injection volume of samples was 10 μL. […] The retention time for NMQ was around 2.5 min.
For the efflux transporters, the relative transport was calculated as relativetransport(%ofcontrol)=transportinh,ATP−transportinh,noATP/transportDMSO,ATP−transportDMSO,noATP×100% where transportinh,ATP and transportinh,no ATP are the transport rates in the presence of food additives with or without ATP, respectively, and transportDMSO,ATP and transportDMSO,no ATP are the corresponding transport rates in the presence of the vehicle (DMSO) with or without ATP.
The half-maximal inhibitory concentrations (IC50) were calculated with GraphPad Prism version 9.0.2 (GraphPad Software, San Diego, CA) using nonlinear regression that fits the data to a four-parameter dose–response curve: relativetransport=minimum+maximum−minimum/1+([I]/IC50)^h where minimum and maximum describe the plateaus of minimal and maximal relative transport (%), [I] is the concentration of inhibitor, and h is the Hill slope, which describes the steepness of the slope.

Caco-2 cells [4] = assay: in vitro; conditions: Caco-2
Experimental: Caco-2 cells were cultured on 12-well Transwell polycarbonate membrane inserts with a 0.4 μm pore size (Corning Incorporated, Kennebunk, ME) at 37 °C and 5% CO2 for 21–24 days prior to the experiment as described in Hubatsch et al. The culture medium (DMEM, 10% FBS, 1% MEM nonessential amino acids, 100 U/mL penicillin–streptomycin) was changed every second day. Transepithelial electrical resistance (TEER) was measured before and after the permeability assay with a Millicell-ERS electrode (Millipore, Bedford, MA) attached to an epithelial volt ohm meter (EVOM, World Precision Instruments, Sarasota, FL). The permeability assay was performed according to a previously published protocol. […] Sulfasalazine is a substrate of BCRP and OATP2B1. , The DMSO concentration was 0.45–1.5%. Before the experiment, inserts were washed and preincubated in the transport buffer for 20 min shaking at 37 °C. Sulfasalazine and LY permeability was measured in the apical to basolateral direction at five time points (20, 40, 60, 90, and 120 min) and, additionally, in the basolateral to apical direction to calculate the efflux ratio. […] […] LY (250 μM) was added on the donor side of all inserts to measure the integrity of the cell monolayer. Before analysis, samples were centrifuged at 2755g for 30 min, and donor solution and mass balance samples were diluted 1:100. LY fluorescence was measured with a Varioskan LUX microplate reader (Thermo Fisher Scientific) at 430 nm excitation and 538 nm emission. Sulfasalazine was analyzed with ultra-performance liquid chromatography (UPLC) using a Syncronis C18 column (1.7 μm particle size, 50 × 2.1 mm + 0.2 μm Waters online filter) (Thermo Fisher Scientific) coupled with Waters Acquity UPLC interfaced with a PDA detector both controlled by the Waters Empower software version 3. The UPLC was operated in gradient mode at 354 nm. Solvents were 0.015 M phosphate buffer pH 2 (A), acetonitrile (B), 1:1 acetonitrile/methanol (strong needle wash), and 20% acetonitrile (weak needle wash). Column temperature was 30 °C, injection volume was 10 μL, retention time was 1.46 min, and flow rate was 0.5 mL/min. The gradient was 25% B → 70% B (0–3 min), 70% B → 25% B (3.00–3.01 min), and 25% B (3.01–4 min). The data were collected for the first 180 s of each UPLC run.
In the Caco-2 permeability assay, the apparent permeability (P app) of sulfasalazine was calculated using the following equation: Papp=(dQ/dt)(1/A×C0) where dQ/dt is the rate of permeation across the cells (nmol/min), A is the surface area of the filter (1.12 cm^2), and C 0 is the initial concentration in the donor chamber (μM). The efflux ratio of sulfasalazine was calculated by dividing the P app in the basolateral to the apical direction by the P app in the apical to basolateral direction. The TEER for each cell insert was calculated before and after the experiment by multiplying the mean resistance of three measurements by the surface area of the filter (1.12 cm^2). Mass balance was calculated by dividing the […]. All experiments were done in triplicate wells, and the IC50 and Caco-2 permeability assays were repeated three times.

For `CC1=C(/C=C/C(C)=C/C=C/C(C)=C/C=C/C=C(C)/C=C/C=C(C)/C=C/C2=C(C)CCCC2(C)C)C(C)(C)CCC1` [beta-carotene], the “applied dose recovered in the basolateral chamber” value (Caco-2 cells [1]) is listed as at most 35%, the BCRP inhibition potency (BCRP [2]) is listed as “weak inhibition potency” and the IC50 (BCRP [3]; Lucifer yellow 50 μM, membrane vesicles, n = 3, read-out: IC50 (95% CI), BCRP) is listed as 12.1 µM. The inhibition at 50 μM (BCRP [3]; Sf9-derived crude membrane vesicles expressing BCRP, pH 7, probe Lucifer yellow 50 μM, food additive 50 μM, n = 1, read-out: inhibition of BCRP substrate accumulation) was at least 50% and the “effect on sulfasalazine permeability (P app)” value (Caco-2 cells [4]) was “None of the selected food additives showed any effect”.

— paper PMC12406256, “Food Additives Inhibit Intestinal Drug Transporters but Have Limited Effect on In Vitro Drug Permeability” (Molecular Pharmaceutics, 2025)
